Test results reported in patent EP0941220B1, “A PROCESS FOR RECOVERY OF ASCORBIC ACID” (Yissum Research And Development Company Of The Hebrew …, priority 1996, dated 1998).

Experiment: Temperature sensitivity of carboxylic acid extraction by 0.5 mol/kg Alamine 304 + 10% octanol in kerosene
Type: physicochemical
Conditions: distribution coefficient at 30°C divided by that at 75°C
Excerpt: Referring now to said patents and the teachings thereof, one finds that the process taught therein utilizes the effect of temperature on phosphoric and carboxylic acid extraction by amine-based extractants. The term "amine" as used herein means water-immiscible amine, with a total of at least 20 carbon atoms on its chains. Said patents teach that such amine-based extractants (ABE) lose much of their extraction efficiency upon temperature elevation. This loss of efficiency is referred to as "temperature sensitivity of extraction" (TS). The magnitude of this TS can be represented by the ratio of the distribution coefficient at the lower temperature (DT1) to the distribution coefficient at the higher temperature (DT2). High TS provides for the purification and the concentration of carboxylic acids through altering the temperature between extraction and back-extraction. The acid is extracted from a feed solution by an ABE at low temperature, and is then stripped or back-extracted with water at an elevated temperature. […] This process is referred to herein as the "temperature swing process" (TSP).

CCC(=O)O [Propionic, Propionic acid]
TS in Equilibrium with Aqueous Solutions of (mol/kg) 0.05 (0.05 mol/kg equilibrium aqueous phase): 1.7 | TS in Equilibrium with Aqueous Solutions of (mol/kg) 0.2 (0.2 mol/kg equilibrium aqueous phase): 1.5 | TS in Equilibrium with Aqueous Solutions of (mol/kg) 0.3 (0.3 mol/kg equilibrium aqueous phase): 1.3 | TS in Equilibrium with Aqueous Solutions of (mol/kg) 0.475 (0.475 mol/kg equilibrium aqueous phase): 1.1
